The record followed here is patent publication US20250170115A1, “LENALIDOMIDE ORAL SOLUTION” (A FINE HOUSE S.A., priority 2021, published 2025).

SMILES strings stand for the structures.

This series is described as follows: Precipitation after preparation of lenalidomide compositions without glycol or polyol. In kind it is physicochemical. The settings on record: lenalidomide dissolved in an aqueous buffer at pH between 1.0 and 3.5; a few minutes. As for the experimental part:
A composition was prepared according to example 23 of WO 1998/03502. The solution contained 5.0 g lenalidomide, 22.5 g sodium chloride, 300.0 g phosphate buffer with pH 7.4 and demineralized water. The pH of the final composition was 7.4.
Similar results (i.e. precipitation) were obtained a few minutes after lenalidomide was dissolved in an aqueous buffer at pH between 1.0 and 3.5.
Likewise, attempts to prepare an oral solution by combining lenalidomide with any one of arginine, leucine, povidone K25, sodium lauryl sulfate, hydroxypropyl methylcellulose, poloxamer 20, in an aqueous buffer at pH 2.0 or pH 2.5 led to the formation of precipitate within minutes of the preparation of the compositions.

On to `Nc1cccc2c1CN(C1CCC(=O)NC1=O)C2=O` (racemic) [Lenalidomide, 1-oxo-(2,6-dioxopiperidin-3-yl)-4-aminoisoindoline], for which the precipitation after dissolution result is recorded as “precipitation”.
